What was measured:
[1] = tested on: H596 non-small-cell lung cancer cells; details: Brar et al. (2001); cited from earlier work
[2] = tested on: M1619 malignant melanoma cells; details: Brar and co-workers; cited from earlier work
M1619 cells = assay: Proliferation after transfection of p22phox or NOX4 sense/antisense oligonucleotides (MTT assay); format: cell-based, human; details: 2 μg oligonucleotide, 6 hours transfection, 48 hours growth, P<0.01
[3] = tested on: cyclic-AMP responsive element (CRE); details: M1619 cells, overnight, 10, 15, 20 μmoles/L; P<0.001 vs untreated
NF-κB p65 = details: M1619 cells, 50 μmol/L overnight
AP-1 = details: M1619 cells, overnight, 10-20 μmoles/L
NF-κB = details: M1619 cells, 50 μmol/L overnight; P<0.001 by densitometry
OCT-1 = details: M1619 cells, overnight, 10-20 μmoles/L
IκBα = details: M1619 cells, 25 μmoles/L overnight
[4] = tested on: M1619 malignant melanoma cells; assay: Proliferation of cultured cells with oxidase inhibitors (MTT assay); format: cell-based, human; details: for Melanoma growth: M1619, data not shown
p65 component of NF-κB = details: M1619 cells, 50 μmol/L overnight

O=c1oc2ccccc2c(O)c1Cc1c(O)c2ccccc2oc1=O [dicumarol]
Growth of H596 non-small-cell lung cancer cells [1]: inhibited growth
Cellular proliferation in M1619 malignant melanoma cells [2]: inhibition

p22^phox antisense oliogonucleotides: previously reported antisense 5′-GATCTGCCCCATGGTGAGGACC-3′ for p22phox mRNA (listed as DNA, chemistry not given here)
Subsequent growth compared with sense oligonucleotides (M1619 cells): significantly reduced subsequent growth

c1ccc2c(c1)[I+]c1ccccc1-2 [DPI, diphenylene iodonium]
CRE DNA binding activity of nuclear protein [3]: inhibits CRE-binding activity in a dose-dependent manner
Constitutive nuclear translocation of NF-κB (anti-p65 staining in nuclei) (NF-κB p65): reduces constitutive nuclear translocation of NF-κB
DNA binding to the AP-1 oligonucleotide consensus sequence (AP-1): does not inhibit
Constitutive NF-κB DNA binding (NF-κB): greatly reduced
DNA binding to the OCT-1 oligonucleotide consensus sequence (OCT-1): does not inhibit
Phosphorylation of the NF-κB inhibitor IκBα (serine 32) (IκBα): decreased phosphorylation
inhibition at 50 µM ([4]; Homo sapiens, after 48 hours, highest dose (50 μmol/L), 10% FBS, P<0.001, read-out: Inhibition of M1619 malignant melanoma cell growth): 86 ± 0.5%
Immunoreactive p65 in nuclear protein (p65 component of NF-κB): reduces immunoreactive p65 in nuclear protein

N=C(NCCC[C@H](N)C(=O)O)N[N+](=O)[O-] [ω-nitro-L-arginine]
Melanoma growth ([4]; 100 μmol/L): unaffected

Oc1ncnc2[nH]ncc12 [allopurinol]
Melanoma growth ([4]; 1 mmol/L): unaffected

NOX4 antisense oliogonucleotides: antisense 5′-AGCTCCTCCAGGACACAGCC-3′ based on NOX4 gene-specific sequence (listed as DNA, chemistry not given here)
Subsequent growth compared with sense oligonucleotides (M1619 cells): significantly reduced subsequent growth

Reference: patent publication US6987127B2, “Regulation of NAD(P)H oxidase growth and transcription in melanoma cells” (Charlotte-Mecklenburg Hospital Authority, priority 2001, dated 2006)
